For one compound, Km results are on record in paper PMC12670765, “Employment of chia gum and tannic acid as natural products in immobilization of horseradish peroxidase for the removal of azo dye” (BMC Biotechnology, 2025).

This assay deals with T1, Horseradish peroxidase (HRP), soluble HRP.
T1 construct: gene PRXC1A; free soluble form
The experiment in a line: Lineweaver-Burk; absorbance at […] nm. To be noted: soluble enzyme; co-substrate H2O2 (standard assay 8 mM); standard assay 20 mM sodium acetate pH 5.5. The assay is classed as biochemical, Armoracia rusticana.

In the case of `COc1ccccc1O` [guaiacol], the Michaelis constant (Km) stood at 6.9 mM.
